Measured values as given in patent US20100184683A1, “ANTIBACTERIAL AND ANTIFUNGAL PEPTIDES” (C3 JIAN, INC., priority 2009, published 2010).
In brackets after ≈: the same amount, converted by molar mass. Where two headings read alike, the source gives them in different places. Ends that are not written are not given here. Peptide text beside a SMILES is read from it.

How the values were obtained:
M. furfur ATCC 14521 = conditions: 5 μM peptide, after 15 min of treatment, 10^6 cells/ml, ATCC medium 1072, 30° C.
Description: FIG. 1. Killing kinetics of PF-S028 L and D versions against M. furfur were determined using standard time-kill methods previously detailed (Eckert et al. (2006) Antimicrob Agents Chemother., 50: 1480-1488). Briefly, a log phase culture of M. furfur ATCC 14521 was diluted to 10^6 cells/ml in ATCC medium 1072. To the reaction tubes 5 μM of either PF-S028 L or PF-S028 D were added. A reaction tube to which 4 μl of 50% methanol served as the negative control. Reaction tubes were stored at 30° C. and at indicated intervals an aliquot was removed from the reaction tube and placed in a recovery tube where peptide was removed by dilution. An aliquot from the recovery tube was plated on ATCC medium 1072 agar plates and incubated at 30° C. until visible colonies formed. Colony forming units were calculated for the negative control (no peptide), PF-S028 L, and PF-S028 D treated cultures.
In some cases killing kinetic experiments were then conducted. Killing kinetics of PF-S028 L and D versions against M. furfur were determined as described in Eckert et al. (2006) Antimicrob Agents Chemother., 50: 1480-1488. Briefly, a log phase culture of M. furfur ATCC 14521 was diluted to 10^6 cells/ml in ATCC medium 1072. To the reaction tubes 5 μM of either PF-S028 L or PF-S028 D were added. […] Colony forming units were calculated for the negative control (no peptide), PF-S028 L, and PF-S028 D treated cultures.

P. aeruginosa = type: cell-based, Pseudomonas aeruginosa; conditions: P. aeruginosa; MH, 37° C., aerobic; inoculum 10^5 CFU/ml; 18-24 h or 48 h
Description: (§1) In certain embodiments the MIC assays are performed as described herein in the Examples. For each organism, the media and growth conditions utilized is detailed in Table 8.
(§2) In certain embodiments the MIC assays are performed as follows: For each organism, the media and growth conditions utilized is detailed in Table 8.

T. rubrum = type: cell-based, Trichophyton rubrum; conditions: T. rubrum; Potato Dextrose Agar, 25° C., aerobic; inoculum 10^5 CFU/ml; 18-24 h or 48 h
Description: as §1, §2

B. subtilis = type: cell-based, Bacillus subtilis
Method in brief: (§3)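 Organism-specific media and growth conditions are used for MIC testing of every strain.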

C. jeikeium = assay: MIC assay, C. jeikeium; type: cell-based, Corynebacterium jeikium; conditions: TSB supplemented with 1% Tween-80, 37° C., aerobic, inoculum 10^6 CFU/ml, 18-24 h or 48 h
Description: as §1, §2

S. epidermidis = type: cell-based; conditions: S. epidermidis; BHI supplemented with 0.25% glucose, 37° C., aerobic; inoculum 10^5 CFU/ml; 18-24 h or 48 h
Description: as §1, §2

S. mutans = type: cell-based, Streptococcus mutans; conditions: S. mutans; TH supplemented with 1% sucrose, 37° C., anaerobic; inoculum 10^5 CFU/ml; 18-24 h or 48 h
Description: as §1, §2

A. baumannii = type: cell-based, Acinetobacter baumannii; conditions: A. baumannii; LB, 30° C., anaerobic; inoculum 10^5 CFU/ml; 18-24 h or 48 h
Description: as §1, §2

A. niger = type: cell-based, Aspergillus niger; conditions: A. niger; Potato Dextrose Agar, 25° C., aerobic; inoculum 10^5 CFU/ml; 18-24 h or 48 h
Method in brief: as §3

C. difficile = type: cell-based, Clostridium difficile; conditions: C. difficile; BHIS, 37° C., anaerobic; inoculum 10^5 CFU/ml; 18-24 h or 48 h
Description: as §1, §2

MRSA = type: cell-based, Methicillin-resistant Staphylococcus aureus; conditions: MRSA; BHI supplemented with 2% glucose, 37° C., aerobic; inoculum 10^5 CFU/ml; 18-24 h or 48 h
Description: as §1, §2

E. coli = type: cell-based, Escherichia coli
Description: as §1, §2

S. pneumoniae = type: cell-based, Streptococcus pneumoniae
Description: as §1, §2

Molecule | M. furfur killed (M. furfur ATCC 14521) | MIC (P. aeruginosa) [µM] | MIC (T. rubrum) [µM] | MIC (C. jeikeium) [µM] | MIC (S. epidermidis) [µM] | MIC (A. niger) [µM] | further results
CC[C@@H](C)[C@@H](NC(=O)[C@H](NC(=O)[C@@H](CO)NC(=O)CN)C(C)C)C(=O)N[C@H](CCCCN)C(=O)N[C@H](CCCCN)C(=O)N[C@H](CCCNC(=N)N)C(=O)N[C@H](CCCNC(=N)N)C(=O)N[C@H](CCCCN)C(=O)N[C@H](CCCNC(=N)N)C(=O)N[C@H](CCSC)C(=O)N[C@H](CO)C(=O)N[C@H](CCCCN)C(=O)N[C@H](CCCCN)C(=O)N[C@H](CCCCN)C(=O)N[C@H](Cc1c[nH]cn1)C(=O)N[C@H](CCCNC(=N)N)C(=O)N[C@H](CCCCN)C(=O)N[C@H](CCSC)C(=O)N[C@H](CC(C)C)C(=O)N[C@H](CCCNC(=N)N)C(=O)N[C@H](CCCNC(=N)N)C(=O)N[C@@H](C(=O)N[C@H](CCCNC(=N)N)C(=O)N[C@@H](C(=O)N[C@H](CCC(N)=O)C(=O)N[C@H](CCCNC(=N)N)C(=O)N[C@H](CCCNC(=N)N)C(=O)N[C@H](CCCCN)C(=O)N[C@H](CC(C)C)C(=O)NCC(=O)N[C@H](CCCCN)C(=O)O)C(C)C)[C@H](C)O [PF-S028 D] | over 99% |  |  |  |  |  | 
CC[C@H](C)[C@H](NC(=O)[C@@H](NC(=O)[C@H](CO)NC(=O)CN)C(C)C)C(=O)N[C@@H](CCCCN)C(=O)N[C@@H](CCCCN)C(=O)N[C@@H](CCCNC(=N)N)C(=O)N[C@@H](CCCNC(=N)N)C(=O)N[C@@H](CCCCN)C(=O)N[C@@H](CCCNC(=N)N)C(=O)N[C@@H](CCSC)C(=O)N[C@@H](CO)C(=O)N[C@@H](CCCCN)C(=O)N[C@@H](CCCCN)C(=O)N[C@@H](CCCCN)C(=O)N[C@@H](Cc1c[nH]cn1)C(=O)N[C@@H](CCCNC(=N)N)C(=O)N[C@@H](CCCCN)C(=O)N[C@@H](CCSC)C(=O)N[C@@H](CC(C)C)C(=O)N[C@@H](CCCNC(=N)N)C(=O)N[C@@H](CCCNC(=N)N)C(=O)N[C@H](C(=O)N[C@@H](CCCNC(=N)N)C(=O)N[C@H](C(=O)N[C@@H](CCC(N)=O)C(=O)N[C@@H](CCCNC(=N)N)C(=O)N[C@@H](CCCNC(=N)N)C(=O)N[C@@H](CCCCN)C(=O)N[C@@H](CC(C)C)C(=O)NCC(=O)N[C@@H](CCCCN)C(=O)O)C(C)C)[C@@H](C)O [PF-S028 L] | 39% |  |  |  |  |  | 
YIQFHLNQQPRPKVKKIKIFL [PF-531] |  | 50 | 50 | 6.25 | 50 | 25 | MIC (B. subtilis; B. subtilis, BHI, 30° C., aerobic, inoculum 10^5 CFU/ml, 18-24 h or 48 h): 25 µM; MIC (S. mutans): 12.5 µM; MIC (A. baumannii): 25 µM; MIC (C. difficile): 12.5 µM
CC[C@H](C)[C@H](NC(=O)[C@H](CCCNC(=N)N)NC(=O)[C@@H](NC(=O)[C@H](CCCCN)NC(=O)[C@H](CCCCN)NC(=O)[C@H](CC(C)C)NC(=O)[C@H](CC(C)C)NC(=O)[C@H](CCCCN)NC(=O)[C@H](CCCNC(=N)N)NC(=O)[C@H](Cc1c[nH]cn1)NC(=O)[C@H](CCCCN)NC(=O)[C@H](CCCCN)NC(=O)[C@H](CCCCN)NC(=O)[C@H](C)NC(=O)[C@H](CCSC)NC(=O)[C@H](CCCNC(=N)N)NC(=O)[C@H](CCCCN)NC(=O)[C@H](CCCNC(=N)N)NC(=O)[C@H](CCCNC(=N)N)NC(=O)[C@H](CCCCN)NC(=O)[C@H](CCCCN)NC(=O)[C@@H](NC(=O)[C@@H](NC(=O)[C@H](CO)NC(=O)CN)C(C)C)[C@@H](C)CC)[C@@H](C)O)C(=O)N[C@@H](CCC(N)=O)C(=O)N[C@@H](CCCNC(=N)N)C(=O)N[C@@H](CCCNC(=N)N)C(=O)N[C@@H](CCCNC(=N)N)C(=O)N[C@@H](C)C(=O)NCC(=O)N[C@@H](CCCCN)C(=O)O [PF-527] (H-GSVIKKRRKRMAKKKHRKLLKKTRIQRRRAGK-OH; N-terminus and C-terminus assumed) |  | 50 (≈ 197 µg/mL) | 25 (≈ 98.5 µg/mL) | 6.25 (≈ 24.6 µg/mL) | 25 (≈ 98.5 µg/mL) | 50 (≈ 197 µg/mL) | MIC (B. subtilis): 12.5 µM (≈ 49.3 µg/mL); MIC (MRSA): 50 µM (≈ 197 µg/mL)
TKKIELKRFVDAFVKKSYENYILERELKKLIKAINEELPTK [PF-600] |  |  |  |  |  |  | MIC (E. coli): 50 µM; MIC (S. pneumoniae): 50 µM
